Assay results published in ChEMBL document CHEMBL1201862, “PubChem BioAssay data set” (2004).
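Assay format: 96-well plates, 48-hour exposure. GI50 marks 50% less growth.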 Calls of active or inactive are those of the source. No stated cut-off is given here; in the data, active = GI50 up to about 1.1 µM and inactive = higher.

Key:
Assay in all cases: NCI-60 cell line screen, 48 h
[1] = tested on: MCF7
[2] = tested on: SW-620
[3] = tested on: SF-268
[4] = tested on: RPMI-8226
[5] = tested on: U-251
[6] = tested on: UO-31
[7] = tested on: OVCAR-8
[8] = tested on: NCI-H23
[9] = tested on: A498
[10] = tested on: NCI-H460
[11] = tested on: SF-295
[12] = tested on: HCT-15
[13] = tested on: SNB-75
[14] = tested on: SK-OV-3
[15] = tested on: HCT-116
[16] = tested on: NCI-H522
[17] = tested on: CCRF-CEM
[18] = tested on: BT-549
[19] = tested on: MDA-MB-231

Row | Compound | GI50 [1] | GI50 [2] | GI50 [3] | GI50 [4] | GI50 [5] | GI50 [6] | GI50 [7] | GI50 [8] | GI50 [9] | GI50 [10] | GI50 [11] | GI50 [12] [µM] | GI50 [13] | GI50 [14] | GI50 [15] | GI50 [16] | GI50 [17] | GI50 [18] | GI50 [19]
1 | c1cc(-c2ccc(-c3ccsc3)s2)cs1 | 50.5 µM (inactive) | 44.3 µM (inactive) | > 100 µM (inactive) | > 100 µM (inactive) | 19.5 µM (inactive) | 28.1 µM (inactive) | 48.8 µM (inactive) | 16.2 µM (inactive) | 46.6 µM (inactive) | > 100 µM (inactive) | 54 µM (inactive) | > 100 | 23.9 µM (inactive) | > 100 µM (inactive) | > 100 µM (inactive) | > 100 µM (inactive) | 12.9 µM (inactive) | – | –
2 | O=C1CCCCC/C1=C\c1ccccc1 | – | > 100 µM (inactive) | > 100 µM (inactive) | 56.4 µM (inactive) | > 100 µM (inactive) | > 100 µM (inactive) | – | > 100 µM (inactive) | > 100 µM (inactive) | 90.6 µM (inactive) | > 100 µM (inactive) | > 100 | 87.3 µM (inactive) | > 100 µM (inactive) | > 100 µM (inactive) | > 100 µM (inactive) | – | > 100 µM (inactive) | > 100 µM (inactive)
3 | CCCCCCCC/C=C\CCCCCCCCNc1ccn(C2OC(COP(=O)(O)OC3CC(n4cc(F)c(=O)[nH]c4=O)OC3CO)C(O)C2O)c(=O)n1 (configuration not stated) | < 0.0394 µM (active) | > 41.3 µM (inactive) | < 0.0292 µM (active) | 0.0509 µM (active) | 2.89 µM (inactive) | 0.198 µM (active) | 0.329 µM (active) | 0.433 µM (active) | – | – | 0.638 µM (active) | 2.48 | 1.7 µM (inactive) | 14.6 µM (inactive) | 0.329 µM (active) | > 53.8 µM (inactive) | < 0.0215 µM (active) | 20.9 µM (inactive) | > 100 µM (inactive)
4 | COc1ccc(-c2cc(=O)c3ccccc3o2)cc1N | – | 38.4 µM (inactive) | 25.7 µM (inactive) | 44.8 µM (inactive) | 69.3 µM (inactive) | 19.9 µM (inactive) | 36.1 µM (inactive) | 38.5 µM (inactive) | 37.4 µM (inactive) | 36 µM (inactive) | 41.7 µM (inactive) | 46.6 | 18.7 µM (inactive) | > 100 µM (inactive) | 32.8 µM (inactive) | 20.5 µM (inactive) | 28.6 µM (inactive) | – | –
5 | Cc1csc(NNC(N)=O)n1 | > 100 µM (inactive) | > 100 µM (inactive) | > 100 µM (inactive) | – | > 100 µM (inactive) | > 100 µM (inactive) | > 100 µM (inactive) | > 100 µM (inactive) | – | > 100 µM (inactive) | > 100 µM (inactive) | > 100 | > 100 µM (inactive) | > 100 µM (inactive) | > 100 µM (inactive) | > 100 µM (inactive) | > 100 µM (inactive) | > 100 µM (inactive) | > 100 µM (inactive)
6 | COc1ccc2c(c1)CN1C(=N2)CSC1c1ccccc1Cl (configuration not stated) | 25.9 µM (inactive) | 17.4 µM (inactive) | 24 µM (inactive) | 12.1 µM (inactive) | 21.5 µM (inactive) | 11.5 µM (inactive) | 16.7 µM (inactive) | 1.66 µM (inactive) | – | 14.3 µM (inactive) | 24.7 µM (inactive) | 11.7 | 19 µM (inactive) | 24.3 µM (inactive) | 17.5 µM (inactive) | 12.9 µM (inactive) | – | 25.2 µM (inactive) | 21.8 µM (inactive)
7 | COc1ccc(/N=N/c2c(-c3c(OC)cc4occc4c3OC)[nH]c(=O)c(C#N)c2C)cc1 | > 100 µM (inactive) | > 100 µM (inactive) | > 100 µM (inactive) | > 100 µM (inactive) | > 100 µM (inactive) | > 100 µM (inactive) | > 100 µM (inactive) | > 100 µM (inactive) | – | > 100 µM (inactive) | > 100 µM (inactive) | > 100 | 53.2 µM (inactive) | > 100 µM (inactive) | > 100 µM (inactive) | > 100 µM (inactive) | > 100 µM (inactive) | – | > 100 µM (inactive)
8 | CC1(C)CC(=O)c2c(nc3ccc4ccccc4c3c2-c2ccc(NC(=O)CCC(=O)Nc3ccc(-c4c5c(nc6ccc7ccccc7c46)CC(C)(C)CC5=O)cc3)cc2)C1 | > 100 µM (inactive) | > 100 µM (inactive) | > 100 µM (inactive) | > 100 µM (inactive) | > 100 µM (inactive) | > 100 µM (inactive) | > 100 µM (inactive) | – | – | > 100 µM (inactive) | > 100 µM (inactive) | – | 28.2 µM (inactive) | > 100 µM (inactive) | > 100 µM (inactive) | > 100 µM (inactive) | > 100 µM (inactive) | – | > 100 µM (inactive)
